Results as given in the supplement of paper PMC10307832.

How the values were obtained:
Experiment in all cases: relative viability (nuclei count vs DMSO), 5 days (fraction); higher = more cells survive
Omipalisib + Alpelisib = compound: COc1ncc(-c2ccc3nccc(-c4ccnnc4)c3c2)cc1NS(=O)(=O)c1ccc(F)cc1F [Omipalisib] + Cc1nc(NC(=O)N2CCC[C@H]2C(N)=O)sc1-c1ccnc(C(C)(C)C(F)(F)F)c1 [Alpelisib] (partner 2 µM)
Procedure, shortened: (§1)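 Lung cancer cell lines, seeded in 1536-well plates, were treated the following day by pin tool with a single drug or with five library-drug doses (not always all listed) in √10 steps on top of a fixed anchor-drug dose. Cells were fixed and nuclei stained in one step after 5 days, and nuclei were counted. Relative viability is the nuclei count for treated wells divided by that for vehicle wells, reported as medians of duplicate plates.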

Omipalisib + Palbociclib = compound: COc1ncc(-c2ccc3nccc(-c4ccnnc4)c3c2)cc1NS(=O)(=O)c1ccc(F)cc1F [Omipalisib] + CC(=O)c1c(C)c2cnc(Nc3ccc(N4CCNCC4)cn3)nc2n(C2CCCC2)c1=O [Palbociclib] (partner 0.5 µM)
Procedure, shortened: as §1

Omipalisib + Pictilisib = compound: COc1ncc(-c2ccc3nccc(-c4ccnnc4)c3c2)cc1NS(=O)(=O)c1ccc(F)cc1F [Omipalisib] + CS(=O)(=O)N1CCN(Cc2cc3nc(-c4cccc5[nH]ncc45)nc(N4CCOCC4)c3s2)CC1 [Pictilisib] (partner 1 µM)
Procedure, shortened: as §1

Omipalisib + Dasatinib = compound: COc1ncc(-c2ccc3nccc(-c4ccnnc4)c3c2)cc1NS(=O)(=O)c1ccc(F)cc1F [Omipalisib] + Cc1nc(Nc2ncc(C(=O)Nc3c(C)cccc3Cl)s2)cc(N2CCN(CCO)CC2)n1 [Dasatinib] (partner 0.075 µM)
Procedure, shortened: as §1

Omipalisib + Trametinib = compound: COc1ncc(-c2ccc3nccc(-c4ccnnc4)c3c2)cc1NS(=O)(=O)c1ccc(F)cc1F [Omipalisib] + CC(=O)Nc1cccc(-n2c(=O)n(C3CC3)c(=O)c3c(Nc4ccc(I)cc4F)n(C)c(=O)c(C)c32)c1 [Trametinib] (partner 0.02 µM)
Procedure, shortened: as §1

Omipalisib + Lapatinib = compound: COc1ncc(-c2ccc3nccc(-c4ccnnc4)c3c2)cc1NS(=O)(=O)c1ccc(F)cc1F [Omipalisib] + CS(=O)(=O)CCNCc1ccc(-c2ccc3ncnc(Nc4ccc(OCc5cccc(F)c5)c(Cl)c4)c3c2)o1 [Lapatinib] (partner 2 µM)
Procedure, shortened: as §1

Cell Line | relative viability (Omipalisib + Alpelisib; first compound 0.0003 µM) | relative viability (Omipalisib + Alpelisib; first compound 0.003 µM) | relative viability (Omipalisib + Alpelisib; first compound 0.03 µM) | relative viability (Omipalisib + Palbociclib; first compound 0.0003 µM) | relative viability (Omipalisib + Palbociclib; first compound 0.003 µM) | relative viability (Omipalisib + Palbociclib; first compound 0.03 µM) | relative viability (Omipalisib + Pictilisib; first compound 0.0003 µM) | relative viability (Omipalisib + Pictilisib; first compound 0.003 µM) | relative viability (Omipalisib + Pictilisib; first compound 0.03 µM) | relative viability (Omipalisib + Dasatinib; first compound 0.0003 µM) | relative viability (Omipalisib + Dasatinib; first compound 0.003 µM) | relative viability (Omipalisib + Dasatinib; first compound 0.03 µM) | relative viability (Omipalisib + Trametinib; first compound 0.0003 µM) | relative viability (Omipalisib + Trametinib; first compound 0.003 µM) | relative viability (Omipalisib + Trametinib; first compound 0.03 µM) | relative viability (Omipalisib + Lapatinib; first compound 0.0003 µM) | relative viability (Omipalisib + Lapatinib; first compound 0.003 µM) | relative viability (Omipalisib + Lapatinib; first compound 0.03 µM)
NCI-H1793 | 0.577 | 0.435 | 0.292 | 0.243 | 0.215 | 0.15 | 0.348 | 0.344 | 0.293 | 0.331 | 0.279 | 0.273 | 0.375 | 0.334 | 0.194 | 0.614 | 0.425 | 0.214
NCI-H3122 | 0.742 | 0.63 | 0.489 | 0.168 | 0.153 | 0.144 | 0.538 | 0.472 | 0.475 | 0.641 | 0.0596 | 0.315 | 0.185 | 0.137 | 0.119 | 1.03 | 1.05 | 0.786
